Measured values taken from ChEMBL document CHEMBL5233249, “Recent advancements in the development of heterocyclic anti-inflammatory agents” (Eur J Med Chem, 2020).
Values after ≈ are worked out from the molar mass of the structure shown.

Experiments:
RAW264.7 [1] = assay: Anti-inflammatory activity in mouse RAW264.7 cells assessed as inhibition of LPS-induced TNFalpha production measured after 24 hrs by EIA method relative to control; assay type: functional; set-up: scale not given: the % may be the effect or the level left
[2] = Cytotoxicity against mouse RAW264.7 cells assessed as decreased cell viability measured after 24 hrs by MTT assay; assay type: toxicity, cell-based
RAW264.7 [3] = assay: Anti-inflammatory activity in mouse RAW264.7 cells assessed as inhibition of LPS-induced reduction in TNFalpha production; assay type: functional, cell-based
BV-2 = assay: Antineuroinflammatory activity against mouse BV-2 cells assessed as inhibition of LPS-induced NO production by Griess assay relative to control; assay type: functional; set-up: scale not given: the % may be the effect or the level left
Rattus norvegicus [4] = assay: Anti-inflammatory activity in Carrageenan-induced paw edema in Wistar albino rat assessed as inhibition of paw edema measured after 1 hr relative to control; assay type: functional
Rattus norvegicus [5] = assay: Anti-inflammatory activity in Carrageenan-induced paw edema in Wistar albino rat assessed as inhibition of paw edema measured after 3 hr relative to control; assay type: functional
[6] = molecular target: T1, Prostaglandin G/H synthase 2 (Homo sapiens, UniProt P35354); assay: Inhibition of COX-2 (unknown origin) at 0.1 uM
T1 sequence (P35354 whole entry): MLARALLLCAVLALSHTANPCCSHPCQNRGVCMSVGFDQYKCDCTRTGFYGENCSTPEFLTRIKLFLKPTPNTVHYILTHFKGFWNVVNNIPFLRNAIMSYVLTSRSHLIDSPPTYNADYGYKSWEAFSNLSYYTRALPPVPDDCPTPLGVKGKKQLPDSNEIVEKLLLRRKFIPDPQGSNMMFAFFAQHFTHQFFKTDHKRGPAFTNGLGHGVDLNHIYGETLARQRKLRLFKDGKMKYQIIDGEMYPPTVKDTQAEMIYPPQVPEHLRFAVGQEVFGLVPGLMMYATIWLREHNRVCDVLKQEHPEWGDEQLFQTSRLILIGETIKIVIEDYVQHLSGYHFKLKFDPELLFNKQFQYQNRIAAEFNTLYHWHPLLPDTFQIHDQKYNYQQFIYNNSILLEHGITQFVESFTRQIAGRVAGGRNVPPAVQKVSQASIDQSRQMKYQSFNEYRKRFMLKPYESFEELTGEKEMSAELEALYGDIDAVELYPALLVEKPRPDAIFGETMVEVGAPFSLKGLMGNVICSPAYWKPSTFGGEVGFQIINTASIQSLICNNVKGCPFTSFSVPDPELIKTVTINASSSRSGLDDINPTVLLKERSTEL

Rattus norvegicus [7] = assay: Anti-inflammatory activity in Carrageenan-induced paw edema in Wistar albino rat assessed as inhibition of paw edema measured after 6 hr relative to control; assay type: functional
RAW264.7 [8] = assay: Anti-inflammatory activity in mouse RAW264.7 cells assessed as decreased production of LPS-induced TNFalpha production; assay type: functional; conditions: read-out: ED50 (the source's name)
RAW264.7 [9] = assay: Anti-inflammatory activity in mouse RAW264.7 cells assessed as decreased production of LPS-induced IL-6 production; assay type: functional
RAW264.7 [10] = assay: Anti-inflammatory activity in mouse RAW264.7 cells assessed as decreased production of LPS-induced IL-1beta production; assay type: functional

| IC50 (RAW264.7 [3]) [µM] | IC50 [6] [µM] | EC50 (RAW264.7 [8]) [µg/mL] | Compound | Activity (RAW264.7 [1]) [%] | CC50 at 24 h [2] [µM] | Activity (BV-2) [%] | inhibition (INH) (Rattus norvegicus [4]) [%] | inhibition (INH) (Rattus norvegicus [5]) [%] | inhibition (INH) (Rattus norvegicus [7]) [%] | Activity (RAW264.7 [9]) [ng/mL] | Activity (RAW264.7 [10]) [ng/mL] |
| --- | --- | --- | --- | --- | --- | --- | --- | --- | --- | --- | --- |
| 5.2 |  |  | CCc1ccc(C/C=C2\CCOc3cc(OC)cc(OC)c3C2=O)cc1 | 96.4 | 43.6 | 87.9 |  |  |  |  |  |
|  | 53.1 | 0.0559 (≈ 0.0744 µM) | COc1ccc(C2=NNC(S)C2N(CN2C(=O)/C(=C\c3nnc(-c4ccc(-c5ccc(OC)cc5)cc4)s3)c3ccccc32)C(=O)c2ccccc2)cc1 (stereo unspecified) |  |  |  | 50 | 52.63 | 57.14 | 102.1 | 35.1 |
